Common to all, as to format: functional
Assay [1] deals with Candida albicans. Kind of assay: Antibiofilm activity against Candida albicans ATCC 90028 intermediate phase biofilm at 2 ug/ml after 24 hrs by calcofluor white dye based fluorescent microscopic analysis.
Assay [2] deals with Candida albicans. Kind of assay: Antifungal activity against Candida albicans ATCC 90028 at 100 uM after 24 hrs by PrestoBlue dye based microdilution broth assay relative to control. Particulars: ATCC 90028, 24 h.
Assay [3] relates to Candida albicans. Kind of assay: Antifungal activity against Candida albicans ATCC 90028 after 24 hrs by PrestoBlue dye based microdilution broth assay. The following applies: ATCC 90028, 24 h. In general terms: Broth dilution looks for growth in wells or tubes with falling amounts of substance.
Assay [4] relates to Candida albicans. Kind of assay: Antibiofilm activity against Candida albicans ATCC 90028 intermediate phase biofilm at antifungal IC50 to IC99 after 24 hrs by calcofluor white dye based fluorescent microscopic analysis.
The next assay has as its system Nakaseomyces glabratus. Kind of assay: Antifungal activity against Candida glabrata ATCC 66032 after 24 hrs by PrestoBlue dye based microdilution broth assay. Particulars: ATCC 66032, 24 h.
Another assay has as its system Candida tropicalis. Kind of assay: Antifungal activity against Candida tropicalis ATCC 750 after 24 hrs by PrestoBlue dye based microdilution broth assay. The following applies: ATCC 750, 24 h.
In assay [5] the test system is Candida albicans. As to the kind of experiment: Antibiofilm activity against Candida albicans ATCC 90028 intermediate phase biofilm at 16 ug/ml after 24 hrs by calcofluor white dye based fluorescent microscopic analysis.
Assay [6] deals with Candida albicans. As to the kind of experiment: Antibiofilm activity against Candida albicans ATCC 90028 intermediate phase biofilm at 100 ug/ml after 24 hrs by calcofluor white dye based fluorescent microscopic analysis.

The source made the active and inactive calls. The calls are words filed in the database; no cut-off is given here.

In the case of `C[C@@H]1[C@H](O)[C@@H](C)/C=C/C=C/C=C/C=C/C=C/C=C/C=C/[C@H](O[C@@H]2O[C@H](C)[C@@H](O)[C@H](N)[C@@H]2O)C[C@@H]2O[C@](O)(C[C@@H](O)C[C@@H](O)[C@H](O)CC[C@@H](O)C[C@@H](O)CC(=O)O[C@H]1C)C[C@H](O)[C@H]2C(=O)O`, in the assay on Candida albicans [1], the result was Active.

`O=C1/C(=C/c2ccccc2O)Oc2ccccc21` registered an inhibition at 100 µM with Candida albicans [2] of 1%.

In the assay on Candida albicans [2], `COc1ccc(/C=C2\Oc3ccccc3C2=O)cc1OC` [3',4'-DIMETHOXY-AURONE] showed an inhibition at 100 µM of 14.2%.

As for `COc1cc(/C=C2\Oc3ccccc3C2=O)ccc1O`, the inhibition at 100 µM with Candida albicans [2] amounted to 11.2%.

`O=C1/C(=C/c2ccccn2)Oc2ccccc21`: the 50% inhibitory concentration (IC50) came to 18 µM in the assay on Candida albicans [3], 10 µM in the assay on Nakaseomyces glabratus and 12 µM with Candida tropicalis. The outcome in the assay with Candida albicans [4] was inactive.

In turn, `O=C1/C(=C/c2cccs2)Oc2c1ccc(O)c2O` came in with an inhibition at 100 µM in the assay with Candida albicans [2] of 26%.

`O=C1/C(=C/c2ccc[nH]2)Oc2c1ccc(O)c2O` gave an inhibition at 100 µM in the assay on Candida albicans [2] of 27.5%.

`COc1ccc(/C=C2\Oc3ccccc3C2=O)cc1O`: 100 µM produced 45.6% inhibition in the assay with Candida albicans [2].

`COc1ccc(/C=C2\Oc3c(ccc(O)c3O)C2=O)cc1O`: the result in the assay with Candida albicans [5] was inactive. Further, the outcome in the assay with Candida albicans [6] was Active. The 50% inhibitory concentration (IC50) with Candida albicans [3] stood at 16 µM; in the assay on Nakaseomyces glabratus, 11 µM; in the assay on Candida tropicalis, 10 µM. Also, the IC99 with Candida albicans [3] stood at 100 µM. Also, at 100 µM the inhibition in the assay on Candida albicans [2] was 99.4%.

In turn, `COc1cc(Br)c(/C=C2\Oc3ccccc3C2=O)cc1OC` gave an inhibition at 100 µM with Candida albicans [2] of 12.5%.

With `O=C1/C(=C/c2ccc[nH]2)Oc2ccccc21`, the inhibition at 100 µM in the assay on Candida albicans [2] was 78.8%.

Take `COc1cccc(/C=C2\Oc3ccccc3C2=O)c1O`: the inhibition at 100 µM in the assay with Candida albicans [2] is 16.7%.

The compound `COc1ccc(/C=C2\Oc3cc(O)ccc3C2=O)cc1O` showed an inhibition at 100 µM with Candida albicans [2] of 40%.

For `O=C1/C(=C/c2ncc[nH]2)Oc2ccccc21`, testing at 100 µM in the assay with Candida albicans [2] gave an inhibition of 43.9%.

In general, inhibition refers to the drop in the measured response relative to a control, in per cent. Read a low inhibition as little suppression. The IC50 is the concentration at which inhibition is half-maximal. Read a low IC50 as greater potency. In general, IC99 refers to the concentration needed for an effect of 99%. A low value points to greater potency.

Source of the values: ChEMBL document CHEMBL4002617, “Antifungal activity of substituted aurones” (Bioorg Med Chem Lett, 2017).
